# Entries after “also recorded” stand apart in the source; their conditions may differ.
# How the values were obtained:
# Assay type in all cases: in vivo, mouse
# serum total nitrite = experiment: Example 3 serum total nitrite; conditions: IM-CO mice
# Method: (§1) Ileus was induced in mice by gentle manipulation of the small intestine. An incision was made to expose the abdominal cavity of the mouse, and bowel manipulation was performed by gentle poking and prodding of the small intestine (see, e.g., Schwarz et al., Gastroenterology 121(6):1354-1357 (2001)). The incision was subsequently closed, and analyses were performed 24 hours later. Mice were exposed to CO by inhalation (250 and 500 ppm) for 1 hour immediately prior to intestinal manipulation and during the entire 24-hour recovery period. Intestinal contractility was assessed in vitro by measuring circular muscle strip contractions in response to bethanechol (0.3-300 μM) and in vivo by determining intestinal transit from the distribution of orally-fed, fluorescein-labeled dextran and calculating geometric center as described in Example 1 above. HO-1 and IL-10 mRNA expression were determined by SYBR green real time RT-PCR from extracts of muscularis extemae, as described in Example 1 above. Release of nitric oxide (NO), a potent inhibitor of smooth muscle contractility, was estimated by measuring serum total nitrite, also described in Example 1 above.
# iNOS mRNA = iNOS mRNA in muscularis after IM (real time RT-PCR); conditions: for iNOS expression, fold increase: naive mice
# Method: (§2) Pro- and anti-inflammatory gene expression was determined by real time RT-PCR. The small intestinal muscularis externa was collected at 4 time points (3, 6, 12, and 24 hr) postoperatively and snap frozen in liquid nitrogen. Total RNA extraction was performed using the guanidium-thiocyanate phenol-chloroform extraction method as described in Eskandari et al. (Id.) RNA pellets were resuspended in RNA-secure resuspension solution (Ambion Inc., Austin, Tex.), followed by removal of potential contaminating DNA by treatment with DNase I (DNA-Free Kit, Ambion Inc., Austin, Tex.). Equal aliquots (5 μg) of total RNA from each sample were quantified by spectrophotometry (wavelength […]). Peak mRNA expression was quantified in duplicate by SYBR Green two-step, real-time RT-PCR. β-actin was used as the endogenous reference. Aliquoted RNA (40 ng) was subjected to first-strand complementary DNA (cDNA) synthesis using random hexamers (PE applied Biosystems, Foster City, Calif.) and Super Script II (Life Technologies, Rockville, Md.). Primers were taken from the literature or designed according to published sequences (Table 3). PCR reaction mixture was prepared using SYBR Green PCR Core Reagents (PE Applied Biosystems). Each sample was estimated in duplicate using the conditions recommended by the manufacturer. Real-time PCR data were plotted as the ΔRn fluorescence signal versus the cycle number. An arbitrary threshold was set to the midlinear portion of the log ΔRn cycle plot. The threshold cycle (CT) is defined as the cycle number at which the ΔRn, crosses this threshold. Quantification of mRNA expression was normalized to β-actin and calculated relative to control using the comparative CT method.
# To exclude PCR amplification of contaminating genomic DNA, RT-negative controls (samples containing RNA which was not reverse transcribed) were included in each PCR reaction. Melting curve analyses were performed for each reaction to ensure amplification of specific product. […] PCR amplification efficiency of each target cDNA was measured by determining the colinearity of serial dilutions. […]
# HO-1 mRNA = experiment: Example 3 HO-1 mRNA by SYBR green real time RT-PCR; conditions: IM-CO mice
# Method: as §1, with “The incision was subsequently closed, and analyses were performed 24 hours later.” left out
# IL-10 mRNA = IL-10 mRNA in muscularis after IM (real time RT-PCR)
# Method: as §2
# To exclude PCR amplification of contaminating genomic DNA, RT-negative controls (samples containing RNA which was not reverse transcribed) were included in each PCR reaction. Melting curve analyses were performed for each reaction to ensure amplification of specific product. In addition, gel electrophoresis were performed for the primers to confirm the absence of non-specific bands and that the amplicons were of the correct size. PCR amplification efficiency of each target cDNA was measured by determining the colinearity of serial dilutions. Serial 3-fold dilutions of cDNA were performed in triplicate for all primers. Standard curves were generated by plotting CT values against relative input copy number to validate the primers. Slopes of the standard curves of −3.2±0.3 with correlation coefficients of 0.99 were considered to be acceptable, having corresponding efficiencies of 100±10%. Analyses of Mediator Release from Intestinal Muscularis
smiles,measurement,setting,value
"[C-]#[O+] [CO, carbon monoxide]",serum nitrite,serum total nitrite,6.0 ± 1.6 µM
same,iNOS expression,iNOS mRNA; naive mice exposed to CO,no effect
same,"iNOS expression, fold increase",iNOS mRNA; CO 3 hr,1.04±0.19 fold
same,"iNOS expression, fold increase",iNOS mRNA; CO 6 hr,1.26±0.19 fold
same,HO-1 expression versus controls,HO-1 mRNA,150 fold
same,HO-1 increase in expression over IM alone,HO-1 mRNA; early induction,300%
same,IL-10 gene expression relative to controls,"IL-10 mRNA; CO treated manipulated animals, 3 hr time point",43 fold
same,"IL-10 gene expression, increase over manipulation alone","IL-10 mRNA; IM + CO vs IM, 3 hr",300%
same,IL-10 message,"IL-10 mRNA; IM + CO vs IM, 3 hr but not 6 hr after surgery",increased
same,IL-10 expression,"IL-10 mRNA; control mice, CO inhalation alone, 3 and 6 hr",significant increase; also recorded: significantly increased

# From patent publication US7687079B2, “Methods of treating ileus” (priority 2002, dated 2010)
